Test system: HMG Co A reductase
Experiment: Reduction of HMG Co A reductase activity in liver microsomes of rats treated with 20,25-diazacholesterol and test compound
Assay type: in vivo, rat
Conditions: male CD rats, test compound given last 3 days with 20,25-diazacholesterol, [14C]-mevalonic acid formation vs control
Method: Male rats of the CD strain from Charles River weighing 180-250 g., initially being kept on a regular laboratory diet, are used. The rats are maintained in reverse light-cycle room for 3-6 days. 20,25-Diazacholesterol is administered for a total of 6 days at a dose of 5 mg/kg/day (IG). The last 3 days the test compound is administered along with the 20,25-diazacholesterol. Both compounds are given 2 hours prior to the test on last day. The rats are anesthetized with ether, sacrificed, and the livers removed. Liver microsomes are collected by differential centrifugation after homogenation. Liver microsomes are used as the source of the HMG Co A reductase. Details of the assay are reported in L. W. White and H. Rudney, Biochemistry 9, 2713 (1970); Brown et al., J. Biol. Chem. 248, 4731 (1973); and C. A. Edwards, Biochem. Biophys. Acts 409, 39 (1975). The percent change in formation of [^ 14 C]-mevalonic acid from [^14 C]-HMG Co A is used as a measure of enzyme activity for treated groups versus control groups of rats. If the treated groups have less activity, and the decrease is statistically significant at P≤0.05, the compound is rated active.

C[C@@H]([C@H]1CC[C@H]2[C@@H]3CC=C4C[C@@H](O)CC[C@]4(C)[C@H]3CC[C@]12C)[C@@H](O)CCC1CC1 [24-cyclopropylchol-5-ene-3β,22S-diol]
inhibition of HMG Co A reductase activity (0.5 mg/kg (IG)): 32% | inhibition of HMG Co A reductase activity (5 mg/kg (IG)): 79%

From US4329295A, “24-Cyclopropylcholene-3β, 22-diols and esters thereof” (G. D. Searle & Co., priority 1981, dated 1982)
